Test results taken from patent EP0098615A1, “1-Oxadethiacephalosporin compound and antibacterial agent containing the same” (MEIJI SEIKA KAISHA LTD., priority 1982, dated 1984).
In brackets after ≈: the same amount, converted by molar mass. Where two headings read alike, the source gives them in different places.

How the values were obtained:
[1] = system: Staphylococcus aureus Smith; assay: MIC by serial dilution method on agar plates; format: cell-based; details: read-out: Minimum inhibitory concentrations (MIC.)
[2] = system: Klebsiella pneumoniae PCI 602; assay: MIC by serial dilution method on agar plates; format: cell-based
Proteus vulgaris GN 76 = assay: MIC by serial dilution method on agar plates; format: cell-based
[3] = system: Serratia marcescens No. 2; assay: MIC by serial dilution method on agar plates; format: cell-based
Protues rettgeri GN 624 = assay: MIC by serial dilution method on agar plates; format: cell-based; details: read-out: Minimum inhibitory concentrations (MIC.)
Escherichia coli No. 29 = assay: Curative effect of oral administration in infected mice (survival); format: in vivo; details: three mice in each group, i.p. inoculum 3.25 x 10^5 CFU/mouse, 7 days observation
Description: Thus, some tests were made to evaluate the curative effects of the new compound of this invention in therapeutic treatment of bacterial infections when the new compound was orally given to mice (average body weight 20 g) which had been infected with Escherichia coli No. 29. In these tests for therapeutic treatment of the bacterial infection, mice (three mice in each group) were inoculated intraperitoneally with Escherichia coli No. 29 at an inoculum dose of 3.25 x 10^5 CFU/mouse and then immediately treated by oral administration of the test compound. For the subsequent 7 days, the mice were kept under observation and the number of surviving mice was counted.

Proteus mirabilis GN 79 = assay: MIC by serial dilution method on agar plates; format: cell-based
[4] = system: Staphylococcus aureus 209P JC-1; assay: MIC by serial dilution method on agar plates; format: cell-based; details: read-out: Minimum inhibitory concentrations (MIC.)
[5] = system: Escherichia coli NIHJ JC-2; assay: MIC by serial dilution method on agar plates; format: cell-based
[6] = system: Salmonella typhimurium LT-2; assay: MIC by serial dilution method on agar plates; format: cell-based; details: Salmonella enterica, read-out: Minimum inhibitory concentrations (MIC.)
[7] = Staphylococcus aureus Smith, serial dilution on agar plates
[8] = PCI602, Klebsiella pneumoniae PCI 602, serial dilution on agar plates, read-out: Minimum inhibitory concentrations (MIC.)
[9] = GN76, Proteus vulgaris GN 76, serial dilution on agar plates, read-out: Minimum inhibitory concentrations (MIC.)
[10] = Serratia marcescens No. 2, serial dilution on agar plates, read-out: Minimum inhibitory concentrations (MIC.)
[11] = Protues rettgeri GN 624, serial dilution on agar plates
[12] = GN79, Proteus mirabilis GN 79, serial dilution on agar plates, read-out: Minimum inhibitory concentrations (MIC.)
[13] = Staphylococcus aureus 209P JC-1, serial dilution on agar plates
[14] = NIHJJC2, Escherichia coli NIHJ JC-2, serial dilution on agar plates, read-out: Minimum inhibitory concentrations (MIC.)
[15] = Salmonella typhimurium LT-2, serial dilution on agar plates

Q: `CO/N=C(\C(=O)NC1C(=O)N2C(C(=O)O)=C(SC)COC12)c1csc(N)n1` (centres unmarked) [Example 6(b), 7-[2-(2-amino-4-thiazolyl)-2-methoxy-iminoacetamido]-1-oxa-1-dethia-3-methyl-thio-3-cephem-4-carboxylic acid tri-fluoroacetate] was tested. Which MIC ([1]; Staphylococcus aureus) did it give?
A: 3.13 µg/mL (≈ 7.57 µM)

Q: And the MIC ([2]; Klebsiella pneumoniae, PCI602, read-out: Minimum inhibitory concentrations (MIC.))?
A: 0.1 µg/mL (≈ 0.242 µM)

Q: And the MIC (Proteus vulgaris GN 76; Proteus vulgaris, GN76, read-out: Minimum inhibitory concentrations (MIC.))?
A: > 100 µg/mL

Q: What about the MIC ([3]; Serratia marcescens, NO.2, read-out: Minimum inhibitory concentrations (MIC.)) of the same compound?
A: 0.78 µg/mL (≈ 1.89 µM)

Q: What about the MIC (Protues rettgeri GN 624) of the same compound?
A: 3.13 µg/mL (≈ 7.57 µM)

Q: And the “number of surviving mice” value (Escherichia coli No. 29; 0.1 mg/mouse oral)?
A: 1

Q: What about the “number of surviving mice” value (Escherichia coli No. 29; 1 mg/mouse oral) of the same compound?
A: 3

Q: What about the “number of surviving mice” value (Escherichia coli No. 29; 5 mg/mouse oral) of the same compound?
A: 3

Q: What about the “number of surviving mice” value (Escherichia coli No. 29; 10 mg/mouse oral) of the same compound?
A: 3

Q: And the MIC (Proteus mirabilis GN 79; Proteus mirabilis, GN79, read-out: Minimum inhibitory concentrations (MIC.))?
A: 0.39 µg/mL (≈ 0.943 µM)

Q: And the MIC ([4]; Staphylococcus aureus, 209P)?
A: 1.56 µg/mL (≈ 3.77 µM)

Q: What about the MIC ([5]; Escherichia coli, NIHJJC2, read-out: Minimum inhibitory concentrations (MIC.)) of the same compound?
A: 0.78 µg/mL (≈ 1.89 µM)

Q: And the MIC ([6]; TYPHIMURIUM)?
A: 0.05 µg/mL (≈ 0.121 µM)

Q: For `CSC1=C(C(=O)O)N2C(=O)C(NC(=O)Cc3ccsc3)C2OC1` (centres unmarked) [Example 2(b), 7-(3-thienylacetamido)-1-oxa-1-dethia-3-methylthio-3-cephem-4-carboxylic acid], which MIC [1, 7] is on record?
A: 0.1 µg/mL (≈ 0.282 µM)

Q: What about the MIC [2, 8] of the same compound?
A: 1.56 µg/mL (≈ 4.4 µM)

Q: And the MIC (Proteus vulgaris GN 76; [9])?
A: > 100 µg/mL

Q: And the MIC [3, 10]?
A: > 100 µg/mL

Q: And the MIC (Protues rettgeri GN 624; [11])?
A: > 100 µg/mL

Q: And the MIC (Proteus mirabilis GN 79; [12])?
A: 25 µg/mL (≈ 70.5 µM)

Q: What about the MIC [4, 13] of the same compound?
A: 0.05 µg/mL (≈ 0.141 µM)

Q: And the MIC [5, 14]?
A: 6.25 µg/mL (≈ 17.6 µM)

Q: And the MIC [6, 15]?
A: 1.56 µg/mL (≈ 4.4 µM)

Q: How did the MIC [1, 7] turn out when `CSC1=C(C(=O)O)N2C(=O)C(NC(=O)Cc3cccs3)C2OC1` (centres unmarked) [Example 1(b), 7-(2-thienylacetamido)-1-oxa-1-dethia-3-methylthio-3-cephem-4-carboxylic acid] was run?
A: 0.2 µg/mL (≈ 0.564 µM)

Q: And the MIC [2, 8]?
A: 1.56 µg/mL (≈ 4.4 µM)

Q: And the MIC (Proteus vulgaris GN 76; [9])?
A: > 100 µg/mL

Q: And the MIC [3, 10]?
A: > 100 µg/mL

Q: What about the MIC (Protues rettgeri GN 624; [11]) of the same compound?
A: > 100 µg/mL

Q: And the MIC (Proteus mirabilis GN 79; [12])?
A: 25 µg/mL (≈ 70.5 µM)

Q: And the MIC [4, 13]?
A: 0.2 µg/mL (≈ 0.564 µM)

Q: And the MIC [5, 14]?
A: 6.25 µg/mL (≈ 17.6 µM)

Q: And the MIC [6, 15]?
A: 1.56 µg/mL (≈ 4.4 µM)

Q: For `CSC1=C(C(=O)O)N2C(=O)C(NC(=O)C(C(=O)O)c3cccs3)C2OC1` (centres unmarked) [Example 3(b), 7-[2-(2-thienyl)-2-carboxyacetamide]-1-oxa-1-dethia-3-methylthio-3-cephem-4-carboxylic acid], which MIC [1, 7] is on record?
A: 0.39 µg/mL (≈ 0.979 µM)

Q: What about the MIC [2, 8] of the same compound?
A: 0.78 µg/mL (≈ 1.96 µM)

Q: What about the MIC (Proteus vulgaris GN 76; [9]) of the same compound?
A: 50 µg/mL (≈ 125 µM)

Q: What about the MIC [3, 10] of the same compound?
A: 3.13 µg/mL (≈ 7.86 µM)

Q: And the MIC (Protues rettgeri GN 624; [11])?
A: 3.13 µg/mL (≈ 7.86 µM)

Q: What about the MIC (Proteus mirabilis GN 79; [12]) of the same compound?
A: 6.25 µg/mL (≈ 15.7 µM)

Q: And the MIC [4, 13]?
A: 0.2 µg/mL (≈ 0.502 µM)

Q: What about the MIC [5, 14] of the same compound?
A: 0.78 µg/mL (≈ 1.96 µM)

Q: And the MIC [6, 15]?
A: 0.78 µg/mL (≈ 1.96 µM)

Q: How did the MIC [1, 7] turn out when `COC1=C(C(=O)O)N2C(=O)[C@@H](NC(=O)[C@H](N)C3=CCC=CC3)[C@H]2SC1` [Cefroxadine, reference compound] was run?
A: 1.56 µg/mL (≈ 4.27 µM)

Q: And the MIC [2, 8]?
A: 3.13 µg/mL (≈ 8.57 µM)

Q: What about the MIC (Proteus vulgaris GN 76; [9]) of the same compound?
A: > 100 µg/mL

Q: And the MIC [3, 10]?
A: 100 µg/mL (≈ 274 µM)

Q: And the MIC (Protues rettgeri GN 624; [11])?
A: > 100 µg/mL

Q: What about the “number of surviving mice” value (Escherichia coli No. 29; 0.1 mg/mouse oral) of the same compound?
A: 0

Q: What about the “number of surviving mice” value (Escherichia coli No. 29; 1 mg/mouse oral) of the same compound?
A: 0

Q: What about the “number of surviving mice” value (Escherichia coli No. 29; 5 mg/mouse oral) of the same compound?
A: 3

Q: What about the “number of surviving mice” value (Escherichia coli No. 29; 10 mg/mouse oral) of the same compound?
A: 3

Q: What about the MIC (Proteus mirabilis GN 79; [12]) of the same compound?
A: 50 µg/mL (≈ 137 µM)

Q: And the MIC [4, 13]?
A: 1.56 µg/mL (≈ 4.27 µM)

Q: And the MIC [5, 14]?
A: 3.13 µg/mL (≈ 8.57 µM)

Q: And the MIC [6, 15]?
A: 6.25 µg/mL (≈ 17.1 µM)

Q: How did the MIC [1, 7] turn out when `CSC1=C(C(=O)O)N2C(=O)C(NC(=O)C(C(=O)O)c3ccsc3)C2OC1` (centres unmarked) [Example 4(b), 7-[2-(3-thienyl)-2-carboxyacetamido]-1-oxa-1-dethia-3-methylthio-3-cephem-4-carboxylic acid] was run?
A: 3.13 µg/mL (≈ 7.86 µM)

Q: And the MIC [2, 8]?
A: 0.39 µg/mL (≈ 0.979 µM)

Q: And the MIC (Proteus vulgaris GN 76; [9])?
A: 50 µg/mL (≈ 125 µM)

Q: And the MIC [3, 10]?
A: 0.39 µg/mL (≈ 0.979 µM)

Q: What about the MIC (Protues rettgeri GN 624; [11]) of the same compound?
A: 1.56 µg/mL (≈ 3.92 µM)

Q: And the MIC (Proteus mirabilis GN 79; [12])?
A: 1.56 µg/mL (≈ 3.92 µM)

Q: And the MIC [4, 13]?
A: 1.56 µg/mL (≈ 3.92 µM)

Q: And the MIC [5, 14]?
A: 0.78 µg/mL (≈ 1.96 µM)

Q: And the MIC [6, 15]?
A: 0.2 µg/mL (≈ 0.502 µM)
